Measured values reported in US8865734B2 (priority 2010, dated 2014).
≈ marks a conversion by molar mass, not a printed value.

Legend:
[1] = tested on: M. tuberculosis inside the host macrophage; test: QIM: Quantification of Intracellular Mycobacteria (intracellular growth assay, phenotypic cell-based); conditions: Mycobacterium tuberculosis; MIC, 80% bacterial growth inhibition; intracellular growth; read-out: QIM
Procedure, shortened: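 Phenotypic high-content assay measuring M. tuberculosis multiplication inside host macrophages, run as dose response. MIC is the minimum compound concentration giving 80% bacterial growth inhibition.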

[2] = tested on: in vitro grown Mycobacteria (M. tuberculosis); test: QUM: Quantification of in vitro grown Mycobacteria (in vitro growth fluorescence assay); type: cell-based; conditions: Mycobacterium tuberculosis; MIC, 80% bacterial growth inhibition; in vitro growth; read-out: QUM
Procedure, shortened: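 Mycobacterium tuberculosis grown in vitro was quantified by fluorescence across compound dose responses. MIC is defined as the minimum concentration producing 80% growth inhibition.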

SMILES: CCc1nc2ccc(Cl)cn2c1C(=O)NCC1CCN(Cc2ccc(OC(F)(F)F)cc2)CC1 [Compound 226, 6-Chloro-2-ethyl-N-((1-(4-(trifluoromethoxy)benzyl)piperidin-4-yl)methyl)imidazo[1,2-a]pyridine-3-carboxamide]
- melting point: 171 to 172 °C
- MIC [1]: < 1 µM
- MIC [2]: < 1 µM

SMILES: CCc1nc2ccc(Cl)cn2c1C(=O)NCC1CCN(Cc2ccc(F)cc2)CC1 [Compound 227, 6-Chloro-2-ethyl-N-((1-(4-fluorobenzyl)piperidin-4-yl)methyl)imidazo[1,2-a]pyridine-3-carboxamide]
- melting point: 176 to 177 °C
- MIC [1]: < 1 µM
- MIC [2]: 1 to 20 µM (≈ 0.429 to 8.58 µg/mL)

SMILES: CCc1nc2cc(Cl)ccn2c1C(=O)NCC1CCN(Cc2ccc(OC(F)(F)F)cc2)CC1 [Compound 228, 7-Chloro-2-ethyl-N-((1-(4-(trifluoromethoxy)benzyl)piperidin-4-yl)methyl)imidazo[1,2-a]pyridine-3-carboxamide]
- melting point: 145 to 146 °C
- MIC [1]: > 20 µM
- MIC [2]: > 20 µM

SMILES: CCc1nc2ccc(Cl)cn2c1C(=O)NC1CCN(Cc2ccc(OC(F)(F)F)cc2)CC1 [Compound 229, 6-Chloro-2-ethyl-N-(1-(4-(trifluoromethoxy)benzyl)piperidin-4-yl)imidazo[1,2-a]pyridine-3-carboxamide]
- melting point: 157 to 158 °C
- MIC [1]: > 20 µM
- MIC [2]: > 20 µM

SMILES: CCc1nc2ccc(Cl)cn2c1COc1ccc(OC(F)(F)F)cc1 [Compound 239, 6-Chloro-2-ethyl-3-((4-(trifluoromethoxy)phenoxy)methyl)imidazo[1,2-a]pyridine]
- melting point: 127 to 128 °C
- MIC [1]: > 20 µM
- MIC [2]: > 20 µM

SMILES: CCc1nc2ccc(Cl)cn2c1CNc1ccc(N2CCN(c3ccc(F)cc3)CC2)cc1 [Compound 241, N-((6-Chloro-2-ethylimidazo[1,2-a]pyridin-3-yl)methyl)-4-(4-(4-fluorophenyl)piperazin-1-yl)aniline]
- melting point: 191 to 192 °C
- MIC [1]: > 20 µM
- MIC [2]: > 20 µM

SMILES: CCc1nc2ccc(Cl)cn2c1CNc1ccc(Oc2ccc(F)cc2)cc1 [Compound 242, N-((6-Chloro-2-ethylimidazo[1,2-a]pyridin-3-yl)methyl)-4-(4-fluorophenoxy)aniline]
- melting point: 148.6 to 148.8 °C
- MIC [1]: > 20 µM
- MIC [2]: > 20 µM

SMILES: CCc1nc2ccc(Cl)cn2c1-c1nc(Cc2ccc(OC(F)(F)F)cc2)no1 [Compound 243, 5-(6-Chloro-2-ethylimidazo[1,2-a]pyridin-3-yl)-3-(4-(trifluoromethoxy)benzyl)-1,2,4-oxadiazole]
- melting point: 146.4 to 146.9 °C
- MIC [1]: > 20 µM
- MIC [2]: > 20 µM

SMILES: CCc1nc2ccccn2c1C(=O)NCc1ccc(/N=C/c2ccc(OC(F)(F)F)cc2)cc1 [Compound 261]
- melting point: 194 °C
- MIC [1]: > 20 µM
- MIC [2]: > 20 µM

SMILES: CCc1nc2cc(Cl)ccn2c1C(=O)NCc1ccc(NCc2ccc(OC(F)(F)F)cc2)cc1 [Compound 262]
- melting point: 169.6 °C
- MIC [1]: < 1 µM
- MIC [2]: < 1 µM

SMILES: CCc1nc2ccc(Cl)cn2c1C(=O)NCc1ccc(N2CCC3CCCCC3C2)cc1 (stereo not drawn) [Compound 267, 6-Chloro-2-ethyl-N-(4-(octahydroisoquinolin-2(1H)-yl)benzyl)imidazo[1,2-a]pyridine-3-carboxamide]
- melting point: 141.7 °C
- MIC [1]: < 1 µM
- MIC [2]: < 1 µM

SMILES: CCc1nc2cc(Cl)ccn2c1C(=O)NCc1ccc(N2C=CC(=O)CC2)cc1 [Compound 270, 7-Chloro-2-ethyl-N-(4-(4-oxo-3,4-dihydropyridin-1(2H)-yl)benzyl)imidazo[1,2-a]pyridine-3-carboxamide]
- melting point: 201.3 to 202.8 °C
- MIC [1]: > 20 µM
- MIC [2]: > 20 µM

SMILES: CCc1nc2cc(Cl)ccn2c1C(=O)NCc1ccc(N2CCCCC2C)cc1 (stereo not drawn) [Compound 273, 7-chloro-2-ethyl-N-(4-(2-methylpiperidin-1-yl)benzyl)imidazo[1,2-a]pyridine-3-carboxamide]
- melting point: 117.9 °C
- MIC [1]: < 1 µM
- MIC [2]: < 1 µM

SMILES: CCc1nc2ccc(Cl)cn2c1C(=O)NCc1ccc(N2CCC(COC)CC2)cc1 [Compound 281, 6-Chloro-2-ethyl-N-(4-(4-(methoxymethyl)piperidin-1-yl)benzyl)imidazo[1,2-a]pyridine-3-carboxamide]
- melting point: 162.1 °C
- MIC [1]: < 1 µM
- MIC [2]: < 1 µM

SMILES: CCc1nc2cc(Cl)ccn2c1C(=O)NCc1ccc(N2CCC(COC)CC2)cc1 [Compound 282, 7-Chloro-2-ethyl-N-(4-(4-(methoxymethyl)piperidin-1-yl)benzyl)imidazo[1,2-a]pyridine-3-carboxamide]
- melting point: 172.5 °C
- MIC [1]: < 1 µM
- MIC [2]: < 1 µM

SMILES: CCc1nc2ccc(Cl)cn2c1C(=O)NCc1ccc(N2CCC(c3ccc(F)cc3)CC2)cc1 [Compound 286, 6-Chloro-2-ethyl-N-(4-(4-(4-fluorophenyl)piperidin-1-yl)benzyl)imidazo[1,2-a]pyridine-3-carboxamide]
- melting point: 164 °C
- MIC [1]: < 1 µM
- MIC [2]: < 1 µM

SMILES: CCc1nc2cc(Cl)ccn2c1C(=O)NCc1ccc(N2CCC(c3ccc(F)cc3)CC2)cc1 [Compound 287, 7-Chloro-2-ethyl-N-(4-(4-(4-fluorophenyl)piperidin-1-yl)benzyl)imidazo[1,2-a]pyridine-3-carboxamide]
- melting point: 182.7 °C
- MIC [1]: < 1 µM
- MIC [2]: < 1 µM

SMILES: CCc1nc2ccccn2c1C(=O)NCc1ccc(N2CCC(COc3ccc(F)cc3)CC2)cc1 [Compound 295, 2-Ethyl-N-(4-(4-((4-fluorophenoxy)methyl)piperidin-1-yl)benzyl)imidazo[1,2-a]pyridine-3-carboxamide]
- melting point: 144.2 °C
- MIC [1]: < 1 µM
- MIC [2]: < 1 µM

SMILES: CCc1nc2ccc(Cl)cn2c1C(=O)NCc1ccc(N2CCC(COc3ccc(F)cc3)CC2)cc1 [Compound 296, 6-Chloro-2-ethyl-N-(4-(4-((4-fluorophenoxy)methyl)piperidin-1-yl)benzyl)imidazo[1,2-a]pyridine-3-carboxamide]
- melting point: 171 °C
- MIC [1]: < 1 µM
- MIC [2]: < 1 µM

SMILES: CCc1nc2cc(Cl)ccn2c1C(=O)NCc1ccc(N2CCC(COc3ccc(F)cc3)CC2)cc1 [Compound 297, 7-Chloro-2-ethyl-N-(4-(4-((4-fluorophenoxy)methyl)piperidin-1-yl)benzyl)imidazo[1,2-a]pyridine-3-carboxamide]
- melting point: 186.5 °C
- MIC [1]: < 1 µM
- MIC [2]: < 1 µM

SMILES: CCc1nc2ccccn2c1C(=O)NCc1ccc(N2CCN(c3ccc(F)cc3)CC2)cc1 [Compound 303, 2-Ethyl-N-(4-(4-(4-fluorophenyl)piperazin-1-yl)benzyl)imidazo[1,2-a]pyridine-3-carboxamide]
- melting point: 189.2 °C
- MIC [1]: < 1 µM
- MIC [2]: < 1 µM

SMILES: CCc1nc2ccc(F)cn2c1C(=O)NCc1ccc(N2CCN(c3ccc(F)cc3)CC2)cc1 [Compound 306, 2-Ethyl-6-fluoro-N-(4-(4-(4-fluorophenyl)piperazin-1-yl)benzyl)imidazo[1,2-a]pyridine-3-carboxamide]
- melting point: 200.9 °C
- MIC [1]: < 1 µM
- MIC [2]: < 1 µM

SMILES: CCc1nc2ccc(Br)cn2c1C(=O)NCc1ccc(N2CCN(c3ccc(F)cc3)CC2)cc1 [Compound 307, 6-Bromo-2-ethyl-N-(4-(4-(4-fluorophenyl)piperazin-1-yl)benzyl)imidazo[1,2-a]pyridine-3-carboxamide]
- melting point: 218.1 °C
- MIC [1]: < 1 µM
- MIC [2]: < 1 µM

SMILES: CCc1nc2cc(C)ccn2c1C(=O)NCc1ccc(N2CCN(c3ccc(F)cc3)CC2)cc1 [Compound 309, 2-Ethyl-N-(4-(4-(4-fluorophenyl)piperazin-1-yl)benzyl)-7-methylimidazo[1,2-a]pyridine-3-carboxamide]
- melting point: 203.7 °C
- MIC [1]: < 1 µM
- MIC [2]: < 1 µM

SMILES: CCc1nc2c(F)cccn2c1C(=O)NCc1ccc(N2CCN(c3ccc(F)cc3)CC2)cc1 [Compound 310, 2-Ethyl-8-fluoro-N-(4-(4-(4-fluorophenyl)piperazin-1-yl)benzyl)imidazo[1,2-a]pyridine-3-carboxamide]
- melting point: 204.1 °C
- MIC [1]: < 1 µM
- MIC [2]: < 1 µM

SMILES: CCc1nc2cc(Br)ccn2c1C(=O)NCc1ccc(N2CCN(c3ccc(F)cc3)CC2)cc1 [Compound 311, 7-Bromo-2-ethyl-N-(4-(4-(4-fluorophenyl)piperazin-1-yl)benzyl)imidazo[1,2-a]pyridine-3-carboxamide]
- melting point: 214.6 °C
- MIC [1]: < 1 µM
- MIC [2]: < 1 µM

SMILES: CCc1nc2ccc(Br)cn2c1C(=O)NCc1ccc(N2CCOCC2)cc1 [Compound 315, 6-Bromo-2-ethyl-N-(4-morpholinobenzyl)imidazo[1,2-a]pyridine-3-carboxamide]
- melting point: 228.2 °C
- MIC [1]: < 1 µM
- MIC [2]: < 1 µM

SMILES: CCc1nc2c(F)cccn2c1C(=O)NCc1ccc(N2CCOCC2)cc1 [Compound 317, 2-Ethyl-8-fluoro-N-(4-morpholinobenzyl)imidazo[1,2-a]pyridine-3-carboxamide]
- melting point: 197.3 °C
- MIC [1]: < 1 µM
- MIC [2]: < 1 µM

SMILES: CCc1nc2cc(Br)ccn2c1C(=O)NCc1ccc(N2CCOCC2)cc1 [Compound 324, 7-Bromo-2-ethyl-N-(4-morpholinobenzyl)imidazo[1,2-a]pyridine-3-carboxamide]
- melting point: 202.6 °C
- MIC [1]: < 1 µM
- MIC [2]: < 1 µM

SMILES: CCc1nc2cc(-c3ccncc3)ccn2c1C(=O)NCc1ccc(N2CCOCC2)cc1 [Compound 325, 2-Ethyl-N-(4-morpholinobenzyl)-7-(pyridin-4-yl)imidazo[1,2-a]pyridine-3-carboxamide]
- melting point: 210.1 °C
- MIC [1]: > 20 µM
- MIC [2]: > 20 µM
